In article PMC8588511, “Chromane Derivatives from Underground Parts of Iris tenuifolia and Their In Vitro Antimicrobial, Cytotoxicity and Antiproliferative Evaluation” (Molecules, 2021):
“Also recorded” adds a separate entry of the source. Like-named read-outs stand apart in the source and are kept apart here.

How the values were obtained:
[1] = test system: Escherichia coli (458 B4); test: agar diffusion antimicrobial assay; type: cell-based; settings: 50 μL of 1 mg/mL in DMSO, 18 h, ciprofloxacin 5 µg/mL
Protocol: (§1) Compounds 1, 2, 3, 5, 9, and 10 were tested for their antimicrobial activities against S. aureus (JMRC:STI 10760), B. subtilis (JMRC:STI 10880), S. aureus MRSA (JMRC: ST 33793) E. faecalis VRE (JMRC: ST 33700), E. coli (JMRC:ST 33699), P. aeruginosa (JMRC:ST 33771), P. aeruginosa (JMRC:ST 33772), M. vaccae (JMRC:STI 10670), S. salmonicolor (JMRC:ST 35974), C. albicans (JMRC:STI 25000), and P. notatum (JMRC:STI 50164)) using agar diffusion assay as previously published. Strains were obtained from the Jena Microbial Resource Collection (JMRC). The bacteria were cultivated on standard I nutrient agar in Petri dishes at 37 °C. Antifungal bioassays were conducted at 30 °C using the basidiomycetous yeast S. salmonicolor and the filamentous ascomycete P. notatum, which were cultivated on malt agar, and the ascomycetous yeast C. albicans, which was cultivated on yeast morphology agar. After inoculation of the test organisms, a disc (9 mm in diameter) was removed from the center of the Petri dish and 50 μL of the test solution (1 mg/mL in DMSO) was added to the cavity. After 18 h of incubation, the inhibiting areola were measured and documented as diameters in mm. Ciprofloxacin (5 µg/mL in deionized water) and amphotericin B (10 µg/mL in DMSO/MeOH 1:1) were used as reference substances against bacterial and fungal strains, respectively.

[2] = test system: Staphylococcus aureus (511 B3); test: agar diffusion antimicrobial assay; type: cell-based; settings: 50 μL of 1 mg/mL in DMSO, 18 h, ciprofloxacin 5 µg/mL
Protocol: as §1

[3] = test system: Enterococcus faecalis (VRE 1528 R10); test: agar diffusion antimicrobial assay; type: cell-based; settings: Enterococcus faecalis (VRE 1528 R10), 50 μL of 1 mg/mL in DMSO, 18 h, ciprofloxacin 5 µg/mL; for zone of inhibition at 1000 µg/mL: read-out: Inhibition Zone of Test Microorganism
Protocol: as §1

[4] = test system: Staphylococcus aureus (MRSA 134/94 R9); test: agar diffusion antimicrobial assay; type: cell-based; settings: 50 μL of 1 mg/mL in DMSO, 18 h, ciprofloxacin 5 µg/mL
Protocol: as §1

[5] = test system: Mycobacterium vaccae (10670 M4); test: agar diffusion antimicrobial assay; type: cell-based; settings: Mycobacterium vaccae (10670 M4), 50 μL of 1 mg/mL in DMSO, 18 h, ciprofloxacin 5 µg/mL; for zone of inhibition at 1000 µg/mL: Mycolicibacterium vaccae, read-out: Inhibition Zone of Test Microorganism
Protocol: as §1

[6] = test system: Bacillus subtilis (6633 B1); test: agar diffusion antimicrobial assay; type: cell-based; settings: Bacillus subtilis (6633 B1), 50 μL of 1 mg/mL in DMSO, 18 h, ciprofloxacin 5 µg/mL; for zone of inhibition at 1000 µg/mL: read-out: Inhibition Zone of Test Microorganism
Protocol: as §1

[7] = test system: Sporobolomyces salmonicolor (549 H4); test: agar diffusion antifungal assay; type: cell-based; settings: 50 μL of 1 mg/mL in DMSO, 18 h, 30 °C, amphotericin B 10 µg/mL
Protocol: as §1

[8] = test system: Candida albicans (C.alb.H8); test: agar diffusion antifungal assay; type: cell-based; settings: for zone of inhibition at 1000 µg/mL: read-out: Inhibition Zone of Test Microorganism; for antifungal activity in words: Candida albicans, agar diffusion
Protocol: as §1

[9] = test system: Penicillium notatum (JP36 P1); test: agar diffusion antifungal assay; type: cell-based
Protocol: as §1

[10] = cytotoxicity assay (methylene blue); type: cell-based, human; settings: human, HeLa cells (DSM ACC 57); HeLa, 72 h; read-out: Cytotoxicity CC50 (CI 95%)
Protocol: (§2) In this assay, K-562 (DSM ACC 10), THP-1 (DSM ACC 16), and HeLa (DSM ACC 57) were maintained in Roswell Park Memorial Institute (RPMI) 1640 medium (Cambrex 12-167F) while HUVEC (ATCC CRL-1730) and A549 (DSM ACC 107) were cultured in Dulbecco’s Modified Eagle’s Medium (DMEM) (Cambrex 12-614F). Cells that were grown in the appropriate cell culture medium were supplemented with 10 mL/L ultraglutamine 1 (Cambrex 17-605E/U1), 550 µL/L (50 mg/mL) gentamicin sulfate (Cambrex 17-518Z), and 10% heat inactivated fetal bovine serum (GIBCO Life Technologies 10270-106) at 37 °C. The tested compounds were dissolved in DMSO, and the cells were seeded in 96-well plates at a density of 1 × 10^4 cells/well. As for the antiproliferative effect of the compounds, the cells were incubated for 72 h, and GI50 values were evaluated to be defined as the concentration causing 50% inhibition of proliferation compared to the untreated control. With regard to the cytotoxic assay, HeLa cells were pre-incubated for 48 h without the test compounds. Then, the cells were exposed with different concentrations of compounds and incubated for 72 h. After that, the adherent HeLa cells were fixed by glutaraldehyde and stained with a 0.05% solutions of methylene blue (SERVA 29198) for 15 min. CC50 was evaluated to be defined as the concentration required for the death of 50% of the cell monolayer as compared to control groups. Under our experimental conditions, the optical density measured from the CellTiter-Blue reagent and methylene blue assay is proportional to the number of viable cells. In this experiment, absorbances were measured at 570 nm against the reference wavelength of 600 nm (CellTiter-Blue assay) and at 660 nm (methylene blue assay). Doxorubicin (Adriamycin®) and imatinib (Gleevec®) were used as positive controls for HUVEC, K-562, and HeLa cells. A repeat determination has been conducted in all experiments, and four replicates were assayed. The calculations of the different values of GI50 and CC50 were performed with software Magellan version 3.00 (Tecan Trading AG, Maennedorf, Switzerland).

[11] = test system: three fungi and eight bacterial strains; test: agar diffusion assay, whole panel; type: cell-based; settings: eleven microorganisms
Protocol: as §1

[12] = test system: human lung carcinoma cells (A549); test: antiproliferation assay (CellTiter-Blue); type: cell-based; settings: A549, 72 h, read-out: Antiproliferative Effect, GI50 (CI 95%)
Protocol: as §2

[13] = test system: human acute monocytic leukemia cells (THP-1); test: antiproliferation assay (CellTiter-Blue); type: cell-based; settings: for GI50: THP-1, 72 h, read-out: Antiproliferative Effect, GI50 (CI 95%)
Protocol: as §2

[14] = test system: human chronic myeloid leukemia cells (K-562); test: antiproliferation assay (CellTiter-Blue); type: cell-based; settings: for GI50: K-562, 72 h, read-out: Antiproliferative Effect, GI50 (CI 95%)
Protocol: as §2

[15] = test system: human umbilical vein endothelial cells (HUVEC); test: antiproliferation assay (CellTiter-Blue); type: cell-based; settings: 72 h, read-out: Antiproliferative Effect, GI50 (CI 95%)
Protocol: as §2

[16] = test system: Pseudomonas aeruginosa (K799/61 B9); test: agar diffusion antimicrobial assay; type: cell-based; settings: 18 h
Protocol: as §1

[17] = test system: Pseudomonas aeruginosa (SG137 B7); test: agar diffusion antimicrobial assay; type: cell-based; settings: 50 μL of 1 mg/mL in DMSO, 18 h, ciprofloxacin 5 µg/mL
Protocol: as §1

[18] = test system: human cervix carcinoma cells (HeLa); test: cytotoxicity assay (methylene blue); type: cell-based
Protocol: as §2

[19] = Candida albicans (C.alb.H8), 50 μL of 1 mg/mL in DMSO, 18 h, 30 °C, amphotericin B 10 µg/mL
[20] = read-out: Inhibition Zone of Test Microorganism

Compound | Inhibition Zone of Test Microorganism [4] | zone of inhibition at 1000 µg/mL [8, 19] [mm] | antifungal activity in words [8] | CC50 at 72 h [10] [µM] | antimicrobial activity over the panel in words [11] | GI50 ([12]; Homo sapiens) [µM] | GI50 ([13]; Homo sapiens) [µM] | GI50 ([14]; Homo sapiens, K562) [µM] | GI50 ([15]; Homo sapiens) [µM] | zone of inhibition at 1000 µg/mL [3] [mm] | zone of inhibition at 1000 µg/mL [5] [mm] | Inhibition Zone of Test Microorganism [17] | zone of inhibition at 1000 µg/mL [6] [mm] | also measured
O=C(O)c1cn(C2CC2)c2cc(N3CCNCC3)c(F)cc2c1=O [Ciprofloxacin, reference compound] | - |  |  |  |  |  |  |  |  |  |  |  |  | Inhibition Zone of Test Microorganism [1]: 32 mm; Inhibition Zone of Test Microorganism [2]: 19 mm; Inhibition Zone of Test Microorganism [3]: 16 mm; Inhibition Zone of Test Microorganism [5]: 22 mm; Inhibition Zone of Test Microorganism [6]: 29 mm
C[C@@H]1[C@H](O)[C@@H](C)/C=C/C=C/C=C/C=C/C=C/C=C/C=C/[C@H](O[C@@H]2O[C@H](C)[C@@H](O)[C@H](N)[C@@H]2O)C[C@@H]2O[C@](O)(C[C@@H](O)C[C@@H](O)[C@H](O)CC[C@@H](O)C[C@@H](O)CC(=O)O[C@H]1C)C[C@H](O)[C@H]2C(=O)O [Amphotericin B, reference compound] |  |  |  |  |  |  |  |  |  |  |  |  |  | Inhibition Zone of Test Microorganism [7]: 19 mm; Inhibition Zone of Test Microorganism [8, 19]: 20 mm; Inhibition Zone of Test Microorganism ([9]; Penicillium notatum (JP36 P1), 50 μL of 1 mg/mL in DMSO, 18 h, 30 °C, amphotericin B 10 µg/mL): 19 mm
O=C1CC(c2cccc(O)c2O)Oc2cc3c(c(O)c21)OCO3 (centres unmarked) [Compound 5, 5,2′,3′-Trihydroxy-6,7-methylenedioxyflavanone] |  | 13 | weak activity | > 100 | most active; also recorded: broad activity against eight microorganisms out of eleven | > 100 | 16.5 | 44.3 | 69 | 13 | 20 | - | 13 | zone of inhibition at 1000 µg/mL ([9]; Penicillium chrysogenum, Penicillium notatum (JP36 P1), 50 μL of 1 mg/mL in DMSO, 18 h, 30 °C, amphotericin B 10 µg/mL, read-out: Inhibition Zone of Test Microorganism): 16 mm; antifungal activity in words ([9]; Penicillium notatum, agar diffusion): moderate activity; zone of inhibition at 1000 µg/mL ([16]; Pseudomonas aeruginosa, read-out: Inhibition Zone of Test Microorganism): 17 mm; zone of inhibition at 1000 µg/mL [2, 20]: 15 mm; zone of inhibition at 1000 µg/mL [4, 20]: 13 mm
COc1cc2occ(-c3cccc(O)c3O)c(=O)c2c(O)c1OC [Compound 10, 5,2′,3′-Trihydroxy-6,7-dimethoxyisoflavone] | - | 13 | weak activity | > 100 | most active | 98.8 | 9.1 | 7.6 | 35.8 | 13 | 16 | - | 13 | antiproliferative activity in words ([13]; THP-1): active; antiproliferative activity in words ([14]; K-562): active; Inhibition Zone of Test Microorganism ([16]; Pseudomonas aeruginosa (K799/61 B9), 50 μL of 1 mg/mL in DMSO, ciprofloxacin 5 µg/mL): -
3,5,3′-Trihydroxy-7,2′-dimethoxyflavonol [Compound 11] |  |  |  |  |  |  |  |  |  |  |  |  |  | CC50 [18]: > 100 µM; GI50 [12]: 67 µM; GI50 [13]: 50.6 µM; GI50 [14]: 71.5 µM; GI50 [15]: > 100 µM
